Paper PMC5674494, “Use of Cyclic Backbone NGR-Based SPECT to Increase Efficacy of Postmyocardial Infarction Angiogenesis Imaging” (Contrast Media & Molecular Imaging, 2017)
Positions of bridges follow the written chain, without caps; N, C: chain ends. Residues, ends and D or L forms follow the SMILES beside them. *: point of attachment. X1 = N[C@@H](CSC1CC(=O)N(CC2CCC(C(=O)NCCCCC(C(=O)O)N(CCN(CC(=O)O)CC(=O)O)CCN(CC(=O)O)CC(=O)O)CC2)C1=O)C(=O)*

Experiments:
[1] = Octanol/water partition coefficient (logP); assay type: physicochemical; conditions: 111In-labeled tracer, separate experiment 2 of 3, N = 3, method as ref 22
Description: The logP value of each compound was determined in three separate experiments as described previously.

in vitro = in vitro ADME; conditions: human, whole blood
Description: ^111[…], or ^111In-co(NGR)4 was added to […] human blood in heparin (BD Biosciences, […], The Netherlands). Blood stability was tested at 0, 10, 30, and 50 min. For each time point imaging agents were separated from blood cells and proteins by adding 0.5 mL MeCN (VWR International BV, Breda, The Netherlands) to 0.5 mL blood sample followed by centrifugation (2,000 ×g, 3 min). Supernatant samples were analyzed by HPLC using the above-mentioned method.

[2] = Micro-SPECT myocardial perfusion, SUV of 99mTc-sestamibi in heart segments; assay type: in vivo, Swiss mice; conditions: i.v., last of 4 15-min SPECT frames, mean ± SEM
Description: In 10–12-week-old male Swiss mice, we induced MI by ligation of the left anterior descending coronary artery (LAD) as described before to test coNGR (n = 5) or co(NGR)4 (n = 8). […] SPECT imaging was performed 7 days after MI or sham surgery. All animals were held under the guidelines of the animal care facility (Maastricht University). All animal experiments were approved by the Committee for Animal Welfare of Maastricht University.
Mice were anesthetized with isoflurane (induction 2.5%; maintenance 1.5%), a catheter was placed in a tail vein, and animals were positioned in the SPECT camera (MILabs, Utrecht, The Netherlands). Prior to image acquisition, a bolus injection of ^99mTc-sestamibi and ^111In-coNGR or ^111In-co(NGR)4 was given intravenously (i.v.) in a maximum volume of 200 µL. Table S1 in Supplementary Material available online at https://doi.org/10.1155/2017/8638549 provides an overview of the average injected dose. Immediately after injection, 4 consecutive time frames of 15 min each were acquired. For image quantification we used the last of these frames.
Acquired list mode data was reconstructed using MILabs reconstruction software (version 2.51) employing the POS-EM algorithm (6 iterations and 16 subsets, reconstructed at a voxel size of 0.4 mm). ^99mTc and ^111In images were reconstructed by selecting photo peak and background energy levels as described before.
To allow quantification of imaging agent uptake, in vivo isotope-specific conversion factors (CF) were determined for the 0.6 mm collimator in a representative phantom with a known activity. Using the previously described method the following conversion factors (CF), CF99mTc 612 MBq/mL and CF111In 643 MBq/mL, were found.
PMOD 3.7 cardiac tool PCARD (PMOD technologies, Zürich, Switzerland) was used to segment the heart in the 17-segment model. Uptake per segment was subsequently expressed as a mean standardized uptake value (SUVmean), also using the previously described method. For body weight, we assumed that 1 g equalled 1 mL.

[3] = MI mice (n = 5), coNGR group, 7 days after LAD ligation
[4] = MI mice (n = 8), co(NGR)4 group, 7 days after LAD ligation
[5] = Sham-operated mice (n = 6), co(NGR)4 group, 7 days after surgery

For `CC(=O)N[C@H]1CSSC[C@@H](C(=O)NCC(=O)NCC(=O)N[C@@H](CCCCNC(=O)[C@@H](N)CSC2CC(=O)N(CC3CCC(C(=O)NCCCCC(C(=O)O)N(CCN(CC(=O)O)CC(=O)O)CCN(CC(=O)O)CC(=O)O)CC3)C2=O)C(N)=O)NC(=O)[C@H](CCCNC(=N)N)NC(=O)CNC(=O)[C@H](CC(N)=O)NC1=O` (stereo partly drawn) [cNGR, cyclic(NAc-Cys-Asn-Gly-Arg-Cys-Gly-Gly-Lys)] (Ac-CNGRCGGK(X1)-NH2; disulfide 1-5), the logP2 [1] was −4.17 ± 0.01 and the remaining at 50 min (in vitro) was 7.55%.
In the case of `[C-]#[N+]CC(C)(C)OC.[C-]#[N+]CC(C)(C)OC.[C-]#[N+]CC(C)(C)OC.[C-]#[N+]CC(C)(C)OC.[C-]#[N+]CC(C)(C)OC.[C-]#[N+]CC(C)(C)OC.[Tc]` [^99mTc-sestamibi], the “SUV of 99mTc-sestamibi, segment 1. Basal anterior” value (from here on “SUV … segment 1. Basal anterior”) [2, 3] is reported as 2.46 ± 0.45, the “SUV of 99mTc-sestamibi, segment 2. Basal anteroseptal” value (“SUV … segment 2. Basal anteroseptal” below) [2, 3] is reported as 2.28 ± 0.39 and the “SUV of 99mTc-sestamibi, segment 3. Basal inferoseptal” value (shortened to “SUV … segment 3. Basal inferoseptal”) [2, 3] is reported as 2.33 ± 0.38. The “SUV of 99mTc-sestamibi, segment 4. Basal inferior” value (“SUV … segment 4. Basal inferior” for short) [2, 3] was 2.60 ± 0.56, the “SUV of 99mTc-sestamibi, segment 5. Basal inferolateral” value (“SUV … segment 5. Basal inferolateral” below) [2, 3] was 2.23 ± 0.63 and the “SUV of 99mTc-sestamibi, segment 6. Basal anterolateral” value (“SUV … segment 6. Basal anterolateral” below) [2, 3] was 2.14 ± 0.52. The “SUV of 99mTc-sestamibi, segment 7. Mid anterior” value (“SUV … segment 7. Mid anterior” below) [2, 3] was 1.41 ± 0.28, the “SUV of 99mTc-sestamibi, segment 8. Mid anteroseptal” value (“SUV … segment 8. Mid anteroseptal” for short) [2, 3] was 2.46 ± 0.39 and the “SUV of 99mTc-sestamibi, segment 9. Mid inferoseptal” value (from here on “SUV … segment 9. Mid inferoseptal”) [2, 3] was 2.27 ± 0.53. The “SUV of 99mTc-sestamibi, segment 10. Mid inferior” value (from here on “SUV … segment 10. Mid inferior”) [2, 3] was 1.64 ± 0.67, the “SUV of 99mTc-sestamibi, segment 11. Mid inferolateral” value (shortened to “SUV … segment 11. Mid inferolateral”) [2, 3] was 0.75 ± 0.24 and the “SUV of 99mTc-sestamibi, segment 12. Mid anterolateral” value (“SUV … segment 12. Mid anterolateral” for short) [2, 3] was 0.42 ± 0.09. For the same molecule, the “SUV of 99mTc-sestamibi, segment 13. Apical anterior” value (“SUV … segment 13. Apical anterior” below) [2, 3] was 0.71 ± 0.30, the “SUV of 99mTc-sestamibi, segment 14. Apical septal” value (“SUV … segment 14. Apical septal” for short) [2, 3] was 1.67 ± 0.39 and the “SUV of 99mTc-sestamibi, segment 15. Apical inferior” value (“SUV … segment 15. Apical inferior” below) [2, 3] was 1.30 ± 0.31. The “SUV of 99mTc-sestamibi, segment 16. Apical lateral” value (“SUV … segment 16. Apical lateral” for short) [2, 3] was 0.59 ± 0.26, the “SUV of 99mTc-sestamibi, segment 17. Apex” value [2, 3] was 0.98 ± 0.35 and the “SUV … segment 1. Basal anterior” value [2, 4] was 2.60 ± 0.70. The “SUV … segment 2. Basal anteroseptal” value [2, 4] was 3.68 ± 0.42, the “SUV … segment 3. Basal inferoseptal” value [2, 4] was 3.97 ± 0.49 and the “SUV … segment 4. Basal inferior” value [2, 4] was 3.06 ± 0.54. The “SUV … segment 5. Basal inferolateral” value [2, 4] was 1.66 ± 0.47, the “SUV … segment 6. Basal anterolateral” value [2, 4] was 1.60 ± 0.55 and the “SUV … segment 7. Mid anterior” value [2, 4] was 1.35 ± 0.31. For the same molecule, the “SUV … segment 8. Mid anteroseptal” value [2, 4] was 3.56 ± 0.47, the “SUV … segment 9. Mid inferoseptal” value [2, 4] was 3.57 ± 0.68 and the “SUV … segment 10. Mid inferior” value [2, 4] was 2.21 ± 0.52. For the same molecule, the “SUV … segment 11. Mid inferolateral” value [2, 4] was 0.68 ± 0.07, the “SUV … segment 12. Mid anterolateral” value [2, 4] was 0.62 ± 0.07 and the “SUV … segment 13. Apical anterior” value [2, 4] was 1.04 ± 0.25. For the same molecule, the “SUV … segment 14. Apical septal” value [2, 4] was 2.68 ± 0.30, the “SUV … segment 15. Apical inferior” value [2, 4] was 2.06 ± 0.24 and the “SUV … segment 16. Apical lateral” value [2, 4] was 0.67 ± 0.11. The “SUV of 99mTc-sestamibi, segment 17. Apex” value [2, 4] was 1.25 ± 0.32, the “SUV … segment 1. Basal anterior” value [2, 5] was 2.91 ± .026 and the “SUV … segment 2. Basal anteroseptal” value [2, 5] was 2.72 ± 0.32. For the same molecule, the “SUV … segment 3. Basal inferoseptal” value [2, 5] was 2.89 ± 0.33, the “SUV … segment 4. Basal inferior” value [2, 5] was 3.07 ± 0.33 and the “SUV … segment 5. Basal inferolateral” value [2, 5] was 3.03 ± 0.30. For the same molecule, the “SUV … segment 6. Basal anterolateral” value [2, 5] was 2.89 ± 0.20, the “SUV … segment 7. Mid anterior” value [2, 5] was 3.00 ± 0.22 and the “SUV … segment 8. Mid anteroseptal” value [2, 5] was 3.10 ± 0.28. The “SUV … segment 9. Mid inferoseptal” value [2, 5] was 3.16 ± 0.26, the “SUV … segment 10. Mid inferior” value [2, 5] was 3.03 ± 0.29 and the “SUV … segment 11. Mid inferolateral” value [2, 5] was 3.06 ± 0.34. The “SUV … segment 12. Mid anterolateral” value [2, 5] was 2.77 ± 0.22, the “SUV … segment 13. Apical anterior” value [2, 5] was 2.93 ± 0.22 and the “SUV … segment 14. Apical septal” value [2, 5] was 3.23 ± 0.24. The “SUV … segment 15. Apical inferior” value [2, 5] was 2.88 ± 0.32, the “SUV … segment 16. Apical lateral” value [2, 5] was 2.44 ± 0.20 and the “SUV of 99mTc-sestamibi, segment 17. Apex” value [2, 5] was 2.71 ± 0.25.
